pEC50, pIC50: −log10 of the molar value. Values belong to the compound of their own block, whether it stands above or below them.
Columns and labels:
[1] = Lipophilicity index (RP-HPLC pH 7); assay type: physicochemical; conditions: buffer
CEM-SS [2] = experiment: Inhibitory activity against HIV-1 virus replication as determined by an XTT endpoint by 50%; assay type: functional; conditions: Homo sapiens, read-out: ED50 (the source's name)
H9 = experiment: Inhibitory activity against human T cell lymphoma (H9) growth by 50 %.; assay type: functional
[3] = target: Human immunodeficiency virus type 1 protease (Human immunodeficiency virus 1, UniProt Q72874); experiment: Inhibitory activity against HIV-1 protease cleavage of [V-S-Q-N-(beta-naphthylalanine)-P-I-V)
[4] = Plasma elimination half life was determined for the compound; assay type: ADME, cell-free
CEM-SS [5] = experiment: Inhibitory activity against HIV-2 virus replication as determined by an XTT endpoint by 50%; assay type: functional; conditions: Homo sapiens, read-out: ED50 (the source's name)
[6] = In vitro therapeutic index was evaluated; assay type: functional

SMILES: CN(C)C(=O)OCCOc1ccc(C[C@H](NC(=O)OC(C)(C)C)[C@H](O)CNC[C@@H](O)[C@H](Cc2ccccc2)NC(=O)OC(C)(C)C)cc1
Log k' [1]: 1.24
pEC50 (CEM-SS [2]): 6.92
CC50 (H9): 16000 nM
pIC50 [3]: 7.40

SMILES: CC(C)(C)OC(=O)N[C@@H](Cc1ccccc1)[C@H](O)CNC[C@@H](O)[C@H](Cc1ccc(OCC(=O)N2CCCCC2)cc1)NC(=O)OC(C)(C)C
Log k' [1]: 1.33
pEC50 (CEM-SS [2]): 7.15
CC50 (H9): 17000 nM
pIC50 [3]: 7.05

SMILES: COCCCCOc1ccc(C[C@H](NC(=O)OC(C)(C)C)[C@H](O)CNC[C@@H](O)[C@H](Cc2ccccc2)NC(=O)OC(C)(C)C)cc1
Log k' [1]: 1.6
pEC50 (CEM-SS [2]): > 7.52
CC50 (H9): 12000 nM
pIC50 [3]: 7.30

SMILES: CC(C)(C)OC(=O)N[C@@H](Cc1ccccc1)[C@H](O)CNC[C@@H](O)[C@H](Cc1ccc(OCCc2ccccn2)cc1)NC(=O)OC(C)(C)C
Log k' [1]: 1.39
pEC50 (CEM-SS [2]): 7.40
CC50 (H9): 5000 nM
pIC50 [3]: 7.30

Log k' [1]: 0.87
pIC50 [3]: 7.00
SMILES: CC(C)(C)OC(=O)N[C@@H](Cc1ccccc1)[C@H](O)CNC[C@@H](O)[C@H](Cc1ccc(OCC(=O)N2CCOCC2)cc1)NC(=O)OC(C)(C)C
pEC50 (CEM-SS [2]): 7.00
CC50 (H9): > 100000 nM

SMILES: CC(C)(C)OC(=O)N[C@@H](Cc1ccccc1)[C@H](O)CNC[C@@H](O)[C@H](Cc1ccc(OCCCN2CCOCC2)cc1)NC(=O)OC(C)(C)C
Log k' [1]: 1.28
pEC50 (CEM-SS [2]): 7.40
CC50 (H9): 17000 nM
pIC50 [3]: 7.07

SMILES: CC(C)(C)OC(=O)N[C@@H](Cc1ccccc1)[C@H](O)CNC[C@@H](O)[C@H](Cc1ccc(OCCn2ccnc2)cc1)NC(=O)OC(C)(C)C
Log k' [1]: 0.96
pEC50 (CEM-SS [2]): 7.30
CC50 (H9): 22000 nM
pIC50 [3]: 7.05

SMILES: CC(C)(O)COc1ccc(C[C@H](NC(=O)OC(C)(C)C)[C@H](O)CNC[C@@H](O)[C@H](Cc2ccccc2)NC(=O)OC(C)(C)C)cc1
Log k' [1]: 1.22
pEC50 (CEM-SS [2]): 7.05
CC50 (H9): 49000 nM
pIC50 [3]: 6.92

SMILES: CN1CCN(CCOc2ccc(C[C@H](NC(=O)OC(C)(C)C)[C@H](O)CNC[C@@H](O)[C@H](Cc3ccccc3)NC(=O)OC(C)(C)C)cc2)C1=O
Log k' [1]: 1.04
pEC50 (CEM-SS [2]): 7.30
CC50 (H9): 50000 nM
pIC50 [3]: 7.22

SMILES: CC(C)(C)OC(=O)N[C@@H](Cc1ccccc1)[C@H](O)CNC[C@@H](O)[C@H](Cc1ccc(OCc2nc3ccccc3o2)cc1)NC(=O)OC(C)(C)C
Log k' [1]: 1.69
pEC50 (CEM-SS [2]): 6.96
CC50 (H9): 1900 nM
pIC50 [3]: 6.49

SMILES: CC(C)(C)OC(=O)N[C@@H](Cc1ccccc1)[C@H](O)CNC[C@@H](O)[C@H](Cc1cccc(O)c1)NC(=O)OC(C)(C)C
Log k' [1]: 0.92
pEC50 (CEM-SS [2]): 6.82
CC50 (H9): 17000 nM
pIC50 [3]: 6.70

Log k' [1]: 0.12
pIC50 [3]: 6.82
SMILES: CC(C)(C)OC(=O)N[C@@H](Cc1ccccc1)[C@H](O)CNC[C@@H](O)[C@H](Cc1ccc(OCC(=O)O)cc1)NC(=O)OC(C)(C)C
pEC50 (CEM-SS [2]): 4.13
CC50 (H9): > 100000 nM

SMILES: CC(C)(C)OC(=O)N[C@@H](Cc1ccccc1)[C@H](O)CNC[C@@H](O)[C@H](Cc1ccc(OCCCN2CCOCC2=O)cc1)NC(=O)OC(C)(C)C
Log k' [1]: 0.92
pEC50 (CEM-SS [2]): 7.25
CC50 (H9): 59000 nM
pIC50 [3]: 7.10

SMILES: CC(C)(C)OC(=O)N[C@@H](Cc1ccccc1)[C@H](O)CNC[C@@H](O)[C@H](Cc1ccc(OCCOc2cccnc2)cc1)NC(=O)OC(C)(C)C
Log k' [1]: 1.25
pEC50 (CEM-SS [2]): 7.40
CC50 (H9): 18000 nM
pIC50 [3]: 7.22

SMILES: CC(C)(C)OC(=O)N[C@@H](Cc1ccccc1)[C@H](O)CNC[C@@H](O)[C@H](Cc1ccncc1)NC(=O)OC(C)(C)C
Log k' [1]: 0.8
pEC50 (CEM-SS [2]): 6.27
CC50 (H9): 67000 nM
pIC50 [3]: 6.40

SMILES: CC(O)COc1ccc(C[C@H](NC(=O)OC(C)(C)C)[C@H](O)CNC[C@@H](O)[C@H](Cc2ccccc2)NC(=O)OC(C)(C)C)cc1 (stereo partly specified)
Log k' [1]: 1.02
pEC50 (CEM-SS [2]): 7.15
CC50 (H9): 22000 nM
pIC50 [3]: 7.31

SMILES: CC(C)(C)OC(=O)N[C@@H](Cc1ccccc1)[C@H](O)CNC[C@@H](O)[C@H](Cc1ccc(OCCCc2nc3ccccc3o2)cc1)NC(=O)OC(C)(C)C
Log k' [1]: 1.98
pEC50 (CEM-SS [2]): 5.82
CC50 (H9): 5900 nM
pIC50 [3]: 6.55

SMILES: COCCOc1ccc(C[C@H](NC(=O)OC(C)(C)C)[C@H](O)CNC[C@@H](O)[C@H](Cc2ccccc2)NC(=O)OC(C)(C)C)cc1
Log k' [1]: 1.19
pEC50 (CEM-SS [2]): 7.15
CC50 (H9): 20000 nM
pIC50 [3]: 7.14

Log k' [1]: 0.79
pIC50 [3]: 7.00
SMILES: CC(C)(C)OC(=O)N[C@@H](Cc1ccccc1)[C@H](O)CNC[C@@H](O)[C@H](Cc1ccc(O)cc1)NC(=O)OC(C)(C)C
pEC50 (CEM-SS [2]): 7.05
CC50 (H9): 32000 nM

SMILES: CC(C)(C)OC(=O)N[C@@H](Cc1ccccc1)[C@H](O)CNC[C@@H](O)[C@H](Cc1cccc(OCc2ccccc2)c1)NC(=O)OC(C)(C)C
Log k' [1]: 2.04
pEC50 (CEM-SS [2]): 7.05
CC50 (H9): 1900 nM
pIC50 [3]: 6.85

Log k' [1]: 1.18
pIC50 [3]: 7.00
SMILES: CC(C)(C)OC(=O)N[C@@H](Cc1ccccc1)[C@H](O)CNC[C@@H](O)[C@H](Cc1ccc(OCCN2CCOCC2)cc1)NC(=O)OC(C)(C)C
pEC50 (CEM-SS [2]): 7.15
CC50 (H9): 25000 nM

SMILES: CC(C)(C)OC(=O)N[C@@H](Cc1ccccc1)[C@H](O)CNC[C@@H](O)[C@H](Cc1ccc2ncccc2c1)NC(=O)OC(C)(C)C
pEC50 (CEM-SS [2]): 7.52
CC50 (H9): 15000 nM
pIC50 [3]: 6.89

SMILES: CC(C)(C)OC(=O)N[C@@H](Cc1ccccc1)[C@H](O)CNC[C@@H](O)[C@H](Cc1ccccc1O)NC(=O)OC(C)(C)C
Log k' [1]: 1.16
pEC50 (CEM-SS [2]): 5.92
CC50 (H9): 17000 nM
pIC50 [3]: 6.52

SMILES: CC(C)(C)OC(=O)N[C@@H](Cc1ccccc1)[C@H](O)CNC[C@@H](O)[C@H](Cc1ccc(CCC(=O)N2CCOCC2)cc1)NC(=O)OC(C)(C)C
Log k' [1]: 1.03
pEC50 (CEM-SS [2]): 6.68
CC50 (H9): 58000 nM
pIC50 [3]: 7.07

Log k' [1]: 1.39
half-life [4]: 4 h
SMILES: CC(C)(C)OC(=O)N[C@@H](Cc1ccccc1)[C@H](O)CNC[C@@H](O)[C@H](Cc1ccccc1)NC(=O)OC(C)(C)C
pEC50 (CEM-SS [2]): 7.10
CC50 (H9): 8500 nM
pEC50 (CEM-SS [5]): 6.92
Therapeutic index [6]: 100

SMILES: CC(C)(C)OC(=O)N[C@@H](Cc1ccccc1)[C@H](O)CNC[C@@H](O)[C@H](Cc1ccc(COC(=O)N2CCOCC2)cc1)NC(=O)OC(C)(C)C
Log k' [1]: 1.23
pEC50 (CEM-SS [2]): 7.40
CC50 (H9): 27000 nM
pIC50 [3]: 7.52

Log k' [1]: 0.81
pIC50 [3]: 6.96
SMILES: CC(C)(C)OC(=O)N[C@@H](Cc1ccccc1)[C@H](O)CNC[C@@H](O)[C@H](Cc1ccc(OCC(O)c2ccccn2)cc1)NC(=O)OC(C)(C)C (stereo partly specified)
pEC50 (CEM-SS [2]): 6.70
CC50 (H9): 58000 nM

SMILES: CC(C)(C)OC(=O)N[C@@H](Cc1ccccc1)[C@H](O)CNC[C@@H](O)[C@H](Cc1ccc(OCc2ccccc2)cc1)NC(=O)OC(C)(C)C
Log k' [1]: 2
pEC50 (CEM-SS [2]): 6.77
CC50 (H9): 1800 nM
pIC50 [3]: 6.52

SMILES: CC(C)(C)OC(=O)N[C@@H](Cc1ccccc1)[C@H](O)CNC[C@@H](O)[C@H](Cc1ccc(OCCN2CCOC2=O)cc1)NC(=O)OC(C)(C)C
Log k' [1]: 0.82
pEC50 (CEM-SS [2]): 7.10
CC50 (H9): 52000 nM
pIC50 [3]: 7.40

SMILES: CC(C)(C)OC(=O)N[C@@H](Cc1ccccc1)[C@H](O)CNC[C@@H](O)[C@H](Cc1ccc(OCCO)cc1)NC(=O)OC(C)(C)C
Log k' [1]: 0.82
pEC50 (CEM-SS [2]): 7.22
CC50 (H9): 56000 nM
pIC50 [3]: 7.19

Reference: ChEMBL document CHEMBL1129312, “Aminodiol HIV protease inhibitors. Synthesis and structure-activity relationships of P1/P1' compounds: correlation between lipophilicity and cytotoxicity” (J Med Chem, 1996)
